According to patent publication US5994361A, “Substituted purinyl derivatives with immunomodulating activity” (priority 1995, dated 1999):
“Also recorded” adds a separate entry of the source.

What was measured:
spleen cells [1] = assay: Immunophenotyping on spleen cells, combination with cyclophosphamide; type: in vivo, C57/BLJ6 mice; conditions: in combination with cyclophosphamide
Experimental: (§1) After in vivo drugs analysis, the drugs were evaluated on whole blood for drug stability and toxicity. Furthermore, in vivo/ex vivo analysis was performed on normal and cyclophosphamide immunosuppressed animals plus 5Fu-treated animals. Cell immunophenotyping was performed on mouse-treatedblood and spleen. The following cell surface antigens were analyzed:
(§2) CD3 (all T cells), CD4 (T helper/inducer, binds class II-restricted T cells), CD8a (cytotoxic T cells, CTL adhesion), CD11a (T, B, NK, some stem cells, CTL adhesion anti LFA-1α), MAC-1 (monocyte/macrophage), NK (natural killer cells), Ly5 (B cells), CD45 (all leukocytes, protein tyrosine phosphates), and TCR (T cell receptor).
(§3) C57/BLJ6 mice (6-8 weeks old) were injected daily for 4 consecutive days, sacrificed at day 5 and immunophenotyping was performed on blood and spleen cells.
(§4) The cells were washed twice in PBS, resuspended in 1 ml of RPMI 2% FBS, and incubated for 45 min. on ice with monoclonal antibody. The cells were washed once, fixed with 1% paraformaldehyde, then analyzed using XL Coulter® counter.

spleen cells [2] = assay: Immunophenotyping on spleen cells of compound #1 treated mice; type: in vivo, C57/BLJ6 mice; conditions: N = 10
Experimental: as §1, §2, §3, §4

[3] = Body weight, compound #1 with Cytoxan 20 mg/kg (Example 93); type: in vivo; conditions: compound #1 + CTX 20 mg/kg
Experimental: Combination of compound #1 (25 and 50 mg/kg i.p. daily) plus CTX (20 mg/kg i.v. single bolus) was evaluated against day 4 established DA-3 tumors.

spleen cells [4] = assay: Immunophenotyping on spleen cells, combination with 5 Fluorouracil; type: in vivo, C57/BLJ6 mice; conditions: N = 4
Experimental: as §1, §2, §3, §4

blood cells = assay: Immunophenotyping on blood cells, combination with 5 Fluorouracil; type: in vivo, C57/BLJ6 mice; conditions: N = 4
Experimental: as §1, §2, §3, §4

[5] = test system: T cell activity (ConA), spleen mononuclear leukocytes; assay: Mitogenic proliferation on spleen cell suspension, T (ConA); type: cell-based, C57BL-6 mice; conditions: at 10^-8 - 10^-5 (M); 4320 min
Source text: (§5) Mitogenic lectin (mitogen) is a protein which binds and cross-links specific cells surface carbohydrate determinants, and will polyclonally stimulate lymphoid cells. Lymphocyte activation by either antigens or mitogens results in intracellular changes and the subsequent development into a lymphoblast. Mitogenic stimulation of lymphocytes in vitro is believed to mimic the series of events which occur in vivo following their stimulation by specific antigens. PHA, ConA, and PWM, LPS mitogens can be used as a measurement of T cell and B cell activity, respectively.
(§6) Briefly, spleen mononuclear leukocytes from C57BL-6 mice were incubated in the presence or absence of mitogens with or without tested drugs. After 72 hours or 5 days, ^3 H thymidine incorporation was recorded as an indication of cell transformation and proliferation.
(§7) 100 μl of a suspension of 2×10^6 cells/ml (2×10^5 cells/well) were incubated in presence of PHA or ConA or PWM or LPS at the following concentrations:
(§8) PHA=0.01% final concentration-0.001%
(§9) Cells were incubated in presence or absence of drugs for 72 hours. 0.5 or 1 μCi of tritiated thymidine (^3 H) was added per well the last 18 or 6 hours of incubation respectively. Cells were harvested and counted on a Beta counter.

DA-3 mammary carcinoma = assay: Compound #1 with Cytoxan 28 mg/kg against DA-3 mammary carcinoma, tumor sizes (Example 94); type: in vivo, Balb/c mice; set-up: key: tumor volume = length × width²/2
Experimental: Parameters of effect were measured by inhibition of tumor outgrowth and growth rate [tumors measured along the longest axis (length) and the perpendicular shortest axis (width) and the tumor volumes (T.V.±S.E.) was calculated by the formula T.V.=length (cm)×(width cm)^2 /2.] assessment of body weight loss.
In another experiment, the CTX treatment was prolonged. Balb/c mice were injected s.c. with 5×10^5 DA-3 tumor cells at day 0. At day 4 when established tumors appeared, tumor-bearing animals were randomized (n=11/gr.) and injected with CTX (at 28 mg/kg) i.v. bolus injections at days 4, 11, and 18. […]

[6] = test system: Fisher male and female rats; assay: In vivo toxicity, repeated intravenous injections (Example 96)
Experimental: The objective of this study was to find the toxic dose of compound #1 after repeated intravenous injections in Fisher male and female rats.
Groups of 3 male rats, and 3 female rats were injected daily i.v. for 5 consecutive days. A first group received 500 mg/kg, a second group 250 mg/kg, and a third group 125 mg/kg. In addition, one male and one female were injected with 1000 mg/kg. An untreated group (male and female) was included in the experiment. For all doses a constant volume of […] was used. Injections were started on day 0 and continued until day 4 (5 days). […] On day 8, the rats were euthanatized and a macroscopic examination of the internal organs was performed.

[7] = test system: B cell activity (LPS), spleen mononuclear leukocytes; assay: Mitogenic proliferation on spleen cell suspension, B (LPS); type: cell-based, C57BL-6 mice; conditions: Mus musculus, Leukocyte, 72 h; at 10^-6 (M)
Source text: as §5, §6, §7, §8, §9

[8] = 250 mg/kg and 125 mg/kg i.v., 5 days

**Q.** With `CN(C)c1ncnc2c1ncn2CCCCCOC(=O)N[C@H](CCCNC(=N)N)C(=O)O` [Compound #1, N,N-Dimethylaminopurinyl Pentoxycarbonyl D-Arginine] as the molecule, how does the “Immunophenotyping, spleen” value (spleen cells [1]) read?
**A.** no effect

**Q.** And the “Ly5 (mean)” value (spleen cells [2]; 25 mg/kg)?
**A.** 54.08

**Q.** And the “TCR+ (mean)” value (spleen cells [2]; 25 mg/kg)?
**A.** 39.78

**Q.** What about the “Ly5 (mean)” value (spleen cells [2]; 50 mg/kg) of the same molecule?
**A.** 50.35

**Q.** What about the “TCR+ (mean)” value (spleen cells [2]; 50 mg/kg) of the same molecule?
**A.** 45.09

**Q.** What about the body weight loss [3] of the same molecule?
**A.** No significant body weight loss

**Q.** What about the “CD4+ CD45- (mean)” value (spleen cells [4]; 5 FU + cpd #1 25 mg/kg) of the same molecule?
**A.** 13.19

**Q.** And the “NK+ (mean)” value (spleen cells [4]; 5 FU + cpd #1 25 mg/kg)?
**A.** 3.32

**Q.** What about the “CD4+ CD45- (mean)” value (spleen cells [4]; 5 FU + cpd #1 50 mg/kg) of the same molecule?
**A.** 12.06

**Q.** And the “NK+ (mean)” value (spleen cells [4]; 5 FU + cpd #1 50 mg/kg)?
**A.** 3.17

**Q.** And the “CD8+ CD45+ (mean)” value (blood cells; 5 FU + cpd #1 25 mg/kg)?
**A.** 10.11

**Q.** What about the “NK+ (mean)” value (blood cells; 5 FU + cpd #1 25 mg/kg) of the same molecule?
**A.** 3.58

**Q.** And the “CD8+ CD45+ (mean)” value (blood cells; 5 FU + cpd #1 50 mg/kg)?
**A.** 8.65

**Q.** And the “NK+ (mean)” value (blood cells; 5 FU + cpd #1 50 mg/kg)?
**A.** 4.12

**Q.** What about the “T (ConA) mitogenic proliferation” value [5] of the same molecule?
**A.** 2 - 4 ×

**Q.** And the tumor size (DA-3 mammary carcinoma; BCH-1393 50 mg/kg + CTX 28 mg/kg, day 7)?
**A.** 6.5

**Q.** What about the tumor size (DA-3 mammary carcinoma; BCH-1393 50 mg/kg + CTX 28 mg/kg, day 9) of the same molecule?
**A.** 12.6

**Q.** And the tumor size (DA-3 mammary carcinoma; BCH-1393 50 mg/kg + CTX 28 mg/kg, day 11)?
**A.** 20.2

**Q.** What about the tumor size (DA-3 mammary carcinoma; BCH-1393 50 mg/kg + CTX 28 mg/kg, day 14) of the same molecule?
**A.** 9.5

**Q.** And the tumor size (DA-3 mammary carcinoma; BCH-1393 50 mg/kg + CTX 28 mg/kg, day 16)?
**A.** 41.7

**Q.** What about the tumor size (DA-3 mammary carcinoma; BCH-1393 50 mg/kg + CTX 28 mg/kg, day 18) of the same molecule?
**A.** 44.9

**Q.** What about the tumor size (DA-3 mammary carcinoma; BCH-1393 50 mg/kg + CTX 28 mg/kg, day 21) of the same molecule?
**A.** 63.4

**Q.** What about the tumor size (DA-3 mammary carcinoma; BCH-1393 50 mg/kg + CTX 28 mg/kg, day 23) of the same molecule?
**A.** 69.6

**Q.** What about the tumor size (DA-3 mammary carcinoma; BCH-1393 50 mg/kg + CTX 28 mg/kg, day 25) of the same molecule?
**A.** 95.4

**Q.** And the tumor size (DA-3 mammary carcinoma; BCH-1393 50 mg/kg + CTX 28 mg/kg, day 28)?
**A.** 104.2

**Q.** And the tumor size (DA-3 mammary carcinoma; BCH-1393 50 mg/kg + CTX 28 mg/kg, day 30)?
**A.** 115.8

**Q.** What about the tumor size (DA-3 mammary carcinoma; BCH-1393 50 mg/kg Ip (Days 3-28) + CTX 28 mg/kg Iv (days 4, 11, 18), day 4) of the same molecule?
**A.** 3.6

**Q.** What about the tumor size (DA-3 mammary carcinoma; single agent (CTX 28 mg/kg days 4, 11, 18, or BCH-1393 50 mg/kg days 3-28), day 4) of the same molecule?
**A.** 2.7

**Q.** What about the tumor size (DA-3 mammary carcinoma; single agent (CTX 28 mg/kg or BCH-1393 50 mg/kg), day 7) of the same molecule?
**A.** 10.2

**Q.** What about the tumor size (DA-3 mammary carcinoma; single agent (CTX 28 mg/kg or BCH-1393 50 mg/kg), day 9) of the same molecule?
**A.** 18.1

**Q.** What about the tumor size (DA-3 mammary carcinoma; single agent (CTX 28 mg/kg or BCH-1393 50 mg/kg), day 11) of the same molecule?
**A.** 29.2

**Q.** What about the tumor size (DA-3 mammary carcinoma; single agent (CTX 28 mg/kg or BCH-1393 50 mg/kg), day 14) of the same molecule?
**A.** 50.1

**Q.** What about the tumor size (DA-3 mammary carcinoma; single agent (CTX 28 mg/kg or BCH-1393 50 mg/kg), day 16) of the same molecule?
**A.** 58.5

**Q.** What about the tumor size (DA-3 mammary carcinoma; single agent (CTX 28 mg/kg or BCH-1393 50 mg/kg), day 18) of the same molecule?
**A.** 66.3

**Q.** What about the tumor size (DA-3 mammary carcinoma; single agent (CTX 28 mg/kg or BCH-1393 50 mg/kg), day 21) of the same molecule?
**A.** 94.2

**Q.** And the tumor size (DA-3 mammary carcinoma; single agent (CTX 28 mg/kg or BCH-1393 50 mg/kg), day 23)?
**A.** 131.4

**Q.** What about the tumor size (DA-3 mammary carcinoma; single agent (CTX 28 mg/kg or BCH-1393 50 mg/kg), day 25) of the same molecule?
**A.** 130.9

**Q.** And the tumor size (DA-3 mammary carcinoma; single agent (CTX 28 mg/kg or BCH-1393 50 mg/kg), day 28)?
**A.** 152.5

**Q.** And the tumor size (DA-3 mammary carcinoma; single agent (CTX 28 mg/kg or BCH-1393 50 mg/kg), day 30)?
**A.** 187.2

**Q.** What about the abnormal signs [6, 8] of the same molecule?
**A.** no abnormal signs

**Q.** And the growth curves [6, 8]?
**A.** normal

**Q.** What about the changes on necropsy ([6]; 250 mg/kg and 125 mg/kg i.v., day 8) of the same molecule?
**A.** No drug induced changes

**Q.** What about the signs of toxicity ([6]; 250 mg/kg i.v., 5 consecutive days) of the same molecule?
**A.** no signs of toxicity

**Q.** And the growth curves ([6]; 500 mg/kg i.v., 5 days)?
**A.** not affected when compared to controls

**Q.** What about the “lethality or effects on growth” value ([6]; 500 mg/kg i.v., 5 days) of the same molecule?
**A.** no lethality of effects on the growth of the animals

**Q.** What about the “signs of drug effect” value ([6]; 500 mg/kg i.v., 5 days) of the same molecule?
**A.** twitches of the torso area, tremors of the forepaws and jumping episods; also recorded: some short lasting abnormal signs

**Q.** And the duration of signs ([6]; 500 mg/kg i.v., after each of five injections)?
**A.** less than 1 hour

**Q.** What about the lethality ([6]; 1000 mg/kg i.v.) of the same molecule?
**A.** lethal

**Q.** And the “signs of drug effect” value ([6]; 1000 mg/kg i.v.)?
**A.** severe colonic convulsions

**Q.** And the time to death ([6]; 1000 mg/kg i.v., 1 male and 1 female, both died)?
**A.** ≤ 10 min

**Q.** And the tolerability ([6]; i.v. in Fisher rats)?
**A.** well tolerated

**Q.** What about the “tolerability (conclusion)” value ([6]; rat, in vivo) of the same molecule?
**A.** appear to be well tolerated

**Q.** And the fold induction at 1 µM [7]?
**A.** 2
